Experimental findings from patent US6432403B1, “Antibodies to polypeptides having prenylcysteine carboxyl methlytransferase activity or inhibiting activity” (New York University, priority 1997, dated 2002) are described below.

Entries after “also recorded” stand apart in the source; their conditions may differ.

Assay [1] concerns the target T1, endogenous neutrophil pcCMT (Homo sapiens, UniProt O60725).
T1 construct: endogenous in cells; host or cells: human peripheral blood neutrophils, light membranes (nitrogen cavitation, sucrose density centrifugation)
As to the kind of experiment: Carboxyl methylation of Rho GTPases by human neutrophil membranes. The conditions noted are these: stated identical to the recombinant enzyme; read-out: ED50 for endogenous neutrophil pcCMT. It is filed as biochemical. On the procedure: FIGS. 5A and 5B show the carboxyl methylation of ras-related GTPases by COS-1 cell membranes expressing ectopic human pcCMT. In FIG. 5A, neutrophil cytosol (CS) containing a mixture of Rho family proteins complexed with Rho-GDI (lanes 2, 3, 6, 7, 10, 11) or RhoA-GDI complexes partially purified from CS (lanes 4, 8, 12) were incubated with the methyl donor S-adenosyl-L-[methyl-^3H]methionine and light membranes derived from nitrogen cavitation of human neutrophils (lanes 1-4) or COS-1 cells transiently transfected with either human pcCMT (lanes 5-8) or vector alone (lanes 9-12). In some reactions (lanes 3, 7, 11) a competitive pcCMT inhibitor, AFC, was included. Reaction products were analyzed by SDS-PAGE and fluorography. The position of carboxyl methylated […] is indicated as is the position of protein phosphatase 2a (PP2a) that is methylated on a C-terminal leucine by an enzyme unrelated to pcCMT (Lee et al, 1993). […] Carboxyl methyltransferase activity was quantitated in membranes of COS-1 cells transfected with HL60 pcCMT using prenylcysteine analogs as defined substrates (Philips et al, 1995). […]

Another assay has as its system GFP-Nras. As to the kind of experiment: Subcellular localization of GFP-Nras in transfected COS-1 cells (epifluorescence microscopy). It is filed as cell-based. The conditions noted are these: 200 μM during the 24-hour transfection. The protocol:
FIGS. 8A-8C show the effect of a pcCMT inhibitor (AFC) on the subcellular localization of Nras. In FIG. 8A, COS-1 cells were transiently transfected with GFP-Nras and observed live at 24 hours by epifluorescence microscopy to reveal both surface membrane (arrowheads) and intense perinuclear (Golgi) fluorescence. The position of the […] is marked (N). […] Bars indicate […].
Expression of Recombinant pcCMT: The 3.6-kb full-length HL60 pcCMT cDNA and an 852-bp cDNA fragment comprising the ORF were subcloned into the eukaryotic expression vectors pCDM8 and pcDNA3.1 (Invitrogen, Carlsbad, Calif.). Myc-tagged pcCMT was made by adding a sequence encoding the 10-amino acid epitope of c-Myc recognized by monoclonal antibody 9E10 to the C terminus of pcCMT using patch PCR and subcloning into pcDNA3.1. pcCMT tagged at the C terminus with GFP was generated by subcloning the pcCMT ORF into the expression vector pGFP-N3 (Clontech). For pcCMT enzymatic assays, COS-1 cells were grown in 10-cm dishes and transfected with pcCMT with DEAE-dextran as described (Aruffo et al, 1987). For fluorescence microscopy, exponentially growing COS-1, CHO, and NIH3T3 cells were plated the day prior to transfection at 50-60% confluence and transfected with 2 μg of DNA using LipofectAMINE (Life Technologies, Inc.), Gaithersburg, Md.) according to the manufacturer's instructions. […]

T1 sequence (O60725 whole entry): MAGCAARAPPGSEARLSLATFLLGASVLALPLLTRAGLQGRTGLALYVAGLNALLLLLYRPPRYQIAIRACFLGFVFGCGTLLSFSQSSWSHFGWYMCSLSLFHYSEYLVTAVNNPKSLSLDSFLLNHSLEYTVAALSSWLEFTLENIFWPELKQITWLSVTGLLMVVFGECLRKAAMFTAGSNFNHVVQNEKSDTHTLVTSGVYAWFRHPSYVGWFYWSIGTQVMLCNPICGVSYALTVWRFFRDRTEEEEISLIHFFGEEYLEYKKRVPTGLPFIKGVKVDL

Consider `CC(=O)N[C@@H](CSC/C=C(\C)CC/C=C(\C)CCC=C(C)C)C(=O)O` [AFC, N-acetyl-S-trans,trans-farnesyl-L-cysteine], for which the EC50 in assay [1] amounted to 10 µM. Further, the “Effect on membrane localization of GFP-Nras” value with GFP-Nras was “blocked; also recorded: predominantly cytosolic localization”.
